These compounds were tested on PI3-kinase (assay: NanoBRET screening of ARCS for covalent binding in transfected HEK293 cells). Conditions: HEK293 cells transfected with NanoLuc-target fusion, overnight incubation, washout.
Set-up: species or system Human
Experimental: Human embryonic kidney 293-H (HEK 293, Gibco 293-H, #11631017) cell lines are maintained in Dulbecco's Modified Eagle Medium, high glucose, pyruvate (DMEM, Gibco, #11995065) supplemented with 10% fetal bovine serum (FBS, Gibco, #10082147) and 1× penicillin-streptomycin (100× solution, Gibco, #15140148) at 37° C. and 5% CO2 in a water-saturated incubator. Cell are trypsinized using 0.05% or 0.25% Trypsin-EDTA solution (Trypsin-EDTA, phenol red, Gibco, #25200056 (0.25%) or #25300054). Opti-MEM media supplemented with 10% fetal bovine serum (Opti-MEM I reduced serum media, no phenol red, Gibco, #11058021) is used for culturing cells overnight for NanoBRET readout experiments.
HEK293 cells are cultivated appropriately prior to assay. The medium from cell flask is removed via aspiration, washed 1× with PBS followed by aspiration, trypsinized, and cells are allowed to dissociate from the flask. Trypsin is neutralized using growth medium and cells are pelleted via centrifugation at 200×g for 5 minutes. The medium is aspirated and the cells are resuspended into a single cell suspension using Opti-MEM I supplemented with 10% FBS. The cell density is adjusted to 2×10^5/mL in Opti-MEM I supplemented with 10% FBS in a sterile, conical tube. The cells are transfected and aliquoted directly in a 96-well plate for the NanoBRET assay the next day, and therefore, the cells are cultured overnight in Opti-MEM. The cells are also transfected in bulk and dispensed into a 96-well plate to allow cells to adhere to the plate overnight, thereby enabling washout studies.
The lipid:DNA complexes are prepared as follows:
A 10 μg/mL solution of DNA is prepared in Opti-MEM without serum. This solution contains the following ratios of carrier DNA and DNA encoding NanoLuc fused to the biological target. Serial dilution steps may be warranted to accurately dilute the NanoLuc fusion DNA. Added, in order, the following reagents to a sterile polystyrene test tube: 1 mL of Opti-MEM without phenol red; 9.0 μg/mL of carrier DNA; 1.0 μg/mL of NanoLuc fusion DNA (for some targets, the amount is less). The reagents are mixed thoroughly.
30 μL of FuGENE HD is added into each mL of DNA mixture to form lipid:DNA complex. […] It is mixed by pipetting up and down 5-10 times and incubated at room temperature for 20 minutes to allow complexes to form. 1 part (e.g. 1 mL) of lipid:DNA complex is mixed with 20 parts (e.g. 20 mL) of HEK293 cells in suspension at 2×10^5/mL and mixed gently by pipetting up and down 5 times in a sterile, conical tube. Larger or smaller bulk transfections are scaled accordingly, using this ratio. 100 μL cells+lipid:DNA complex is dispensed into a sterile, tissue-culture treated 96-well plate (20,000 cells/well), and incubated at least 16 hours to allow expression. The cells are incubated in a 37° C.+5% CO2 incubator for >16 hrs. A serially diluted inhibitor or test compound is prepared at 100× final concentration in 100% DMSO. The serially diluted inhibitor stock is prepared in PCR plates. 1 μL per well of 100× serially diluted inhibitor/test compound is added to the cells in 96-well plates that have been transiently transfected overnight and mixed by tapping the plate by hand. The plate is incubated at 37° C.+5% CO2 incubator overnight. A 1× solution of substrate mix (500× stock) and appropriate concentration of tracer is prepared in Opti-Mem. The cells are washed by setting a plate washer to the 96 well plate 5× in PBS pH 7.4 by adding 200 μL PBS each time. The cells are incubated at 37° C. for 2 hours. 100 μL of the 1× Substrate-Tracer solution is added and the 96 well plate is gently tapped to mix. The plate on plate reader is read every hour for the next 6 hours. The binding assays of some ARCS are shown below. Compound 1-XXXII formed a covalent bond with PI3-kinase from about 5% to 20%. ARCS selected from the group consisting of Compounds 1-101, 1-102, 1-113, 1-114, 1-119, 1-120, 1-125 and 1-126 formed a covalent bond with PI3-kinase from about 80% to 100%. […]

SMILES	Binding (Percent inhibition)
C=CC(=O)CCC(=O)N1CCN(Cc2cc3c(N4CCOCC4)nc(-c4cnc(NC(=O)OC)cc4C(F)(F)F)nn3c2)CC1 [Compound 1-101]	+++ (>80%)
C=CC(=O)NCC(=O)N1CCN(Cc2cc3c(N4CCOCC4)nc(-c4cnc(NC(=O)OC)cc4C(F)(F)F)nn3c2)CC1 [Compound 1-102]	+++ (>80%)
COC(=O)Nc1cc(C(F)(F)F)c(-c2nc(N3CCOCC3)c3cc(CN4CCN(C(=O)CCC(=O)C=C(C)C)CC4)cn3n2)cn1 [Compound 1-113]	+++ (>80%)
COC(=O)Nc1cc(C(F)(F)F)c(-c2nc(N3CCOCC3)c3cc(CN4CCN(C(=O)CNC(=O)C=C(C)C)CC4)cn3n2)cn1 [Compound 1-114]	+++ (>80%)
COC(=O)Nc1cc(C(F)(F)F)c(-c2nc(N3CCOCC3)c3cc(CN4CCN(C(=O)CCC(=O)/C=C/CN(C)C)CC4)cn3n2)cn1 [Compound 1-119]	+++ (>80%)
COC(=O)Nc1cc(C(F)(F)F)c(-c2nc(N3CCOCC3)c3cc(CN4CCN(C(=O)CNC(=O)/C=C/CN(C)C)CC4)cn3n2)cn1 [Compound 1-120]	+++ (>80%)
CC#CC(=O)CCC(=O)N1CCN(Cc2cc3c(N4CCOCC4)nc(-c4cnc(NC(=O)OC)cc4C(F)(F)F)nn3c2)CC1 [Compound 1-125]	+++ (>80%)
CC#CC(=O)NCC(=O)N1CCN(Cc2cc3c(N4CCOCC4)nc(-c4cnc(NC(=O)OC)cc4C(F)(F)F)nn3c2)CC1 [Compound 1-126]	+++ (>80%)
C=CC(=O)Nc1ccc(C(=O)N2CCN(Cc3cc4c(N5CCOCC5)nc(-c5cnc(NC(=O)OC)cc5C(F)(F)F)nn4c3)CC2)cc1 [Compound 1-171]	++ (50-80%)
C=CC(=O)Nc1ccc(CCNCc2cc3c(N4CCOCC4)nc(-c4cnc(NC(=O)OC)cc4C(F)(F)F)nn3c2)cc1 [Compound 1-172]	++ (50-80%)
COC(=O)Nc1cc(C(F)(F)F)c(-c2nc(N3CCOCC3)c3cc(CN4CCNCC4)cn3n2)cn1 [Compound 1-XXXII]	+ (<20%)
